The test system of test [1] is T-Rex 293 cell line SC3 cells lacking increased expression of androgen receptor protein. The test can be described thus: Cellular growth inhibition, T-Rex 293 SC3 cells without doxycycline, CellTiter-Glo. The settings on record: T-Rex 293 SC3 cells not exposed to doxycycline, CellTiter-Glo 2.0. It counts as cell-based. Summed up:
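GI50 came from a four-parameter fit of CellTiter-Glo 2.0 luminescence after 72 h compound exposure (0.5% DMSO, 37 °C), dosing 24 h post-seeding. SC3 clone cells (2500/well), transfected with wild-type androgen receptor, grew in charcoal-stripped serum medium lacking phenol red, induced with 10 ng/mL doxycycline or left uninduced.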

The test system of test [2] is VCaP cells. The test can be described thus: Cellular growth inhibition assay for VCaP cells, CellTiter-Glo. In kind it is cell-based, human. The settings on record: 72 hours treatment, CellTiter-Glo 2.0. Summed up:
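GI50 values come from four-parameter curve fits of luminescence data normalized to a zero baseline. Compound, in medium with 0.5% DMSO, was added one day after plating and left for 72 h before CellTiter-Glo 2.0 addition.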
A general note: Cellular ATP, detected with luciferase, serves as a proxy for viable cell number.

This note sets out measurements from patent US20260062422A1 (Halda Therapeutics OpCo, Inc., priority 2022, published 2026).

Turning to `Cc1sc2c(c1C)C(c1ccc(Cl)cc1)=N[C@@H](CC(=O)NCCN(C)c1ncc(C(=O)N[C@H]3C(C)(C)[C@H](Oc4ccc(C#N)c(Cl)c4)C3(C)C)cn1)c1nnc(C)n1-2` [Compound I-1, N-[3-(3-chloro-4-cyano-phenoxy)-2,2,4,4-tetramethyl-cyclobutyl]-2-[2-[[2-[(9S)-7-(4-chlorophenyl)-4,5,13-trimethyl-3-thia-1,8,11,12-tetrazatricyclo[8.3.0.02,6]trideca-2(6),4,7,10,12-pentaen-9-yl]acetyl]amino]ethyl-methyl-amino]pyrimidine-5-carboxamide], the GI50 (as a rule, the concentration that inhibits growth by half) in test [1] (72 h) was in the range of 1500 to 3000 nM.

Regarding `Cc1sc2c(c1C)C(c1ccc(Cl)cc1)=N[C@@H](CC(=O)NCCOCCOCCOCCOCCN(C)c1ncc(C(=O)N[C@H]3C(C)(C)[C@H](Oc4ccc(C#N)c(Cl)c4)C3(C)C)cn1)c1nnc(C)n1-2` [Compound I-3, N-((1r,3r)-3-(3-chloro-4-cyanophenoxy)-2,2,4,4-tetramethylcyclobutyl)-2-((1-((S)-4-(4-chlorophenyl)-2,3,9-trimethyl-6H-thieno[3,2-f][1,2,4]triazolo[4,3-a][1,4]diazepin-6-yl)-2-oxo-6,9,12,15-tetraoxa-3-azaheptadecan-17-yl)(methyl)amino)pyrimidine-5-carboxamide], the GI50 was less than 500 nM in test [2] (Homo sapiens, VCaP, 72 h) and more than 3000 nM in test [1] (72 h). For `Cc1sc2c(c1C)C(c1ccc(Cl)cc1)=N[C@@H](CC(=O)NCCOCCOCCOCCOCCOCCOCCN(C)c1ncc(C(=O)N[C@H]3C(C)(C)[C@H](Oc4ccc(C#N)c(Cl)c4)C3(C)C)cn1)c1nnc(C)n1-2` [Compound I-4], the GI50 in test [2] (Homo sapiens, VCaP, 72 h) was less than 500 nM; in test [1] (72 h), more than 3000 nM. As for `Cc1sc2c(c1C)C(c1ccc(Cl)cc1)=N[C@@H](CC(=O)NCCCN1CCN(CCCN(C)c3ncc(C(=O)N[C@H]4C(C)(C)[C@H](Oc5ccc(C#N)c(Cl)c5)C4(C)C)cn3)CC1)c1nnc(C)n1-2` [Compound I-5, N-((1r,3r)-3-(3-chloro-4-cyanophenoxy)-2,2,4,4-tetramethylcyclobutyl)-2-((3-(4-(3-(2-((S)-4-(4-chlorophenyl)-2,3,9-trimethyl-6H-thieno[3,2-f][1,2,4]triazolo[4,3-a][1,4]diazepin-6-yl)acetamido)propyl)piperazin-1-yl)propyl)(methyl)amino)pyrimidine-5-carboxamide], the GI50 was less than 500 nM in test [2] (Homo sapiens, VCaP, 72 h) and more than 3000 nM in test [1] (72 h). For `Cc1sc2c(c1C)C(c1ccc(Cl)cc1)=N[C@@H](CC(=O)NCCOC1CCN(c3ncc(C(=O)N[C@H]4C(C)(C)[C@H](Oc5ccc(C#N)c(Cl)c5)C4(C)C)cn3)CC1)c1nnc(C)n1-2` [Compound I-6] the same measures were less than 500 nM and 500 to 1500 nM.

In the case of `Cc1sc2c(c1C)C(c1ccc(Cl)cc1)=N[C@@H](CC(=O)NCCOCCOCCOC1CCN(c3ncc(C(=O)N[C@H]4C(C)(C)[C@H](Oc5ccc(C#N)c(Cl)c5)C4(C)C)cn3)CC1)c1nnc(C)n1-2` [Compound I-7], the 50% growth inhibitory concentration (GI50) in test [2] (Homo sapiens, VCaP, 72 h) is less than 500 nM; in test [1] (72 h), 500 to 1500 nM. As to `Cc1sc2c(c1C)C(c1ccc(Cl)cc1)=N[C@@H](CC(=O)NCCOCCOCCOCCOCCOC1CCN(c3ncc(C(=O)N[C@H]4C(C)(C)[C@H](Oc5ccc(C#N)c(Cl)c5)C4(C)C)cn3)CC1)c1nnc(C)n1-2` [Compound I-8], the GI50 in test [2] (Homo sapiens, VCaP, 72 h) was less than 500 nM; in test [1] (72 h) it was 1500 to 3000 nM. `Cc1sc2c(c1C)C(c1ccc(Cl)cc1)=N[C@H](CC(=O)NCCOCCOCCOCCOCCOCCOCCOC1CCN(c3ncc(C(=O)N[C@H]4C(C)(C)[C@H](Oc5ccc(C#N)c(Cl)c5)C4(C)C)cn3)CC1)c1nnc(C)n1-2` [Compound I-9]: the GI50 in test [2] (Homo sapiens, VCaP, 72 h) is less than 500 nM; in test [1] (72 h), 1500 to 3000 nM.

As to `Cc1sc2c(c1C)C(c1ccc(Cl)cc1)=N[C@@H](CC(=O)NCCCN1CCN(CCCOC3CCN(c4ncc(C(=O)N[C@H]5C(C)(C)[C@H](Oc6ccc(C#N)c(Cl)c6)C5(C)C)cn4)CC3)CC1)c1nnc(C)n1-2` [Compound I-10], the GI50 in test [2] (Homo sapiens, VCaP, 72 h) is less than 500 nM; in test [1] (72 h), 1500 to 3000 nM. For `Cc1sc2c(c1C)C(c1ccc(Cl)cc1)=N[C@@H](CC(=O)NCCOCCOCCOCCOC1CCN(c3ncc(C(=O)N[C@H]4C(C)(C)[C@H](Oc5ccc(C#N)c(Cl)c5)C4(C)C)cn3)CC1)c1nnc(C)n1-2` [Compound I-11] the same measures were less than 500 nM and 1500 to 3000 nM.

Regarding `Cc1sc2c(c1C)C(c1ccc(Cl)cc1)=N[C@H](CC(=O)NCCOCCOCCOCCOC1CCN(c3ncc(C(=O)N[C@H]4C(C)(C)[C@H](Oc5ccc(C#N)c(Cl)c5)C4(C)C)cn3)CC1)c1nnc(C)n1-2` [Compound I-13], the 50% growth inhibitory concentration (GI50) was more than 3000 nM in test [2] (Homo sapiens, VCaP, 72 h) and more than 3000 nM in test [1] (72 h). As to `Cc1sc2c(c1C)C(c1ccc(Cl)cc1)=N[C@H](CC(=O)NCCOCCOCCOCCOCCOC1CCN(c3ncc(C(=O)N[C@H]4C(C)(C)[C@H](Oc5ccc(C#N)c(Cl)c5)C4(C)C)cn3)CC1)c1nnc(C)n1-2` [Compound I-14], the GI50 in test [2] (Homo sapiens, VCaP, 72 h) is more than 3000 nM; in test [1] (72 h) it was more than 3000 nM.

For `Cc1sc2c(c1C)C(c1ccc(Cl)cc1)=N[C@@H](CC(=O)NCCOCCOCCOCC1CCN(c3ncc(C(=O)N[C@H]4C(C)(C)[C@H](Oc5ccc(C#N)c(Cl)c5)C4(C)C)cn3)CC1)c1nnc(C)n1-2` [Compound I-17], in test [1] (72 h), the GI50 fell in the range of 500 to 1500 nM. Take `Cc1sc2c(c1C)C(c1ccc(Cl)cc1)=N[C@@H](CC(=O)NCCOCCOCCOCC1CN(c3ncc(C(=O)N[C@H]4C(C)(C)[C@H](Oc5ccc(C#N)c(Cl)c5)C4(C)C)cn3)C1)c1nnc(C)n1-2` [Compound I-18]: the GI50 is less than 500 nM in test [2] (Homo sapiens, VCaP, 72 h) and 1500 to 3000 nM in test [1] (72 h). As to `Cc1sc2c(c1C)C(c1ccc(Cl)cc1)=N[C@H](CC(=O)NCCOCCOCCOCCOCCN(C)c1ncc(C(=O)N[C@H]3C(C)(C)[C@H](Oc4ccc(C#N)c(Cl)c4)C3(C)C)cn1)c1nnc(C)n1-2` [Compound I-19], the GI50 is more than 3000 nM in test [2] (Homo sapiens, VCaP, 72 h) and more than 3000 nM in test [1] (72 h). Consider `Cc1sc2c(c1C)C(c1ccc(Cl)cc1)=N[C@@H](CC(=O)NCCCCCOC1CCN(c3ncc(C(=O)N[C@H]4C(C)(C)[C@H](Oc5ccc(C#N)c(Cl)c5)C4(C)C)cn3)CC1)c1nnc(C)n1-2` [Compound I-22, N-((1r,3r)-3-(3-chloro-4-cyanophenoxy)-2,2,4,4-tetramethylcyclobutyl)-2-(4-((5-(2-((S)-4-(4-chlorophenyl)-2,3,9-trimethyl-6H-thieno[3,2-A][1,2,4]triazolo[4,3-a][1,4]diazepin-6-yl)acetamido)pentyl)oxy)piperidin-1-yl)pyrimidine-5-carboxamide], for which the GI50 in test [2] was less than 500 nM; in test [1] (72 hours) it was more than 3000 nM. For the compound `Cc1sc2c(c1C)C(c1ccc(Cl)cc1)=N[C@@H](CC(=O)NCCCCCCCOC1CCN(c3ncc(C(=O)N[C@H]4C(C)(C)[C@H](Oc5ccc(C#N)c(Cl)c5)C4(C)C)cn3)CC1)c1nnc(C)n1-2` [Compound I-24], the 50% growth inhibitory concentration (GI50) in test [2] (Homo sapiens, VCaP, 72 h) was less than 500 nM; in test [1] (72 h) it was more than 3000 nM. Taken in the same sequence, the figures for `Cc1sc2c(c1C)C(c1ccc(Cl)cc1)=N[C@@H](CC(=O)NCCCCOCCOC1CCN(c3ncc(C(=O)N[C@H]4C(C)(C)[C@H](Oc5ccc(C#N)c(Cl)c5)C4(C)C)cn3)CC1)c1nnc(C)n1-2` [Compound I-28] were less than 500 nM and 500 to 1500 nM.

As to `Cc1sc2c(c1C)C(c1ccc(Cl)cc1)=N[C@@H](CC(=O)NCCCN1CCN(CC3CCN(c4ncc(C(=O)N[C@H]5C(C)(C)[C@H](Oc6ccc(C#N)c(Cl)c6)C5(C)C)cn4)CC3)CC1)c1nnc(C)n1-2` [Compound I-36, N-((1r,3r)-3-(3-chloro-4-cyanophenoxy)-2,2,4,4-tetramethylcyclobutyl)-2-(4-((4-(3-(2-((S)-4-(4-chlorophenyl)-2,3,9-trimethyl-6H-thieno[3,2-f][1,2,4]triazolo[4,3-a][1,4]diazepin-6-yl)acetamido)propyl)piperazin-1-yl)methyl)piperidin-1-yl)pyrimidine-5-carboxamide], the GI50 in test [2] (Homo sapiens, VCaP, 72 h) lay in the range of 500 to 1500 nM; in test [1] (72 h), 500 to 1500 nM. As to `Cc1sc2c(c1C)C(c1ccc(OCCOC3CCN(c4ncc(C(=O)N[C@H]5C(C)(C)[C@H](Oc6ccc(C#N)c(Cl)c6)C5(C)C)cn4)CC3)cc1)=N[C@@H](CC(=O)O)c1nnc(C)n1-2` [Compound I-38], the GI50 was more than 3000 nM in test [2] (Homo sapiens, VCaP, 72 h) and more than 3000 nM in test [1] (72 h). In the case of `Cc1sc2c(c1C)C(c1ccc(OCCOCCOC3CCN(c4ncc(C(=O)N[C@H]5C(C)(C)[C@H](Oc6ccc(C#N)c(Cl)c6)C5(C)C)cn4)CC3)cc1)=N[C@@H](CC(=O)O)c1nnc(C)n1-2` [Compound I-39], the GI50 in test [2] (Homo sapiens, VCaP, 72 h) is more than 3000 nM; in test [1] (72 h), more than 3000 nM. As to `Cc1sc2c(c1C)C(c1ccc(OCCOCCOCCOC3CCN(c4ncc(C(=O)N[C@H]5C(C)(C)[C@H](Oc6ccc(C#N)c(Cl)c6)C5(C)C)cn4)CC3)cc1)=N[C@@H](CC(=O)O)c1nnc(C)n1-2` [Compound I-40], the GI50 was more than 3000 nM in test [2] (Homo sapiens, VCaP, 72 h) and more than 3000 nM in test [1] (72 h). For the compound `Cc1sc2c(c1C)C(c1cccc(OCCOC3CCN(c4ncc(C(=O)N[C@H]5C(C)(C)[C@H](Oc6ccc(C#N)c(Cl)c6)C5(C)C)cn4)CC3)c1)=N[C@@H](CC(=O)O)c1nnc(C)n1-2` [Compound I-41], the GI50 in test [2] (Homo sapiens, VCaP, 72 h) was more than 3000 nM; in test [1] (72 h), more than 3000 nM. For `Cc1sc2c(c1C)C(c1cccc(OCCOCCOC3CCN(c4ncc(C(=O)N[C@H]5C(C)(C)[C@H](Oc6ccc(C#N)c(Cl)c6)C5(C)C)cn4)CC3)c1)=N[C@@H](CC(=O)O)c1nnc(C)n1-2` [Compound I-42], the GI50 is 1500 to 3000 nM in test [2] (Homo sapiens, VCaP, 72 h) and more than 3000 nM in test [1] (72 h). In test [2], `Cc1sc2c(c1C)C(c1ccc(CC3CC4(CCN(c5ncc(C(=O)N[C@H]6C(C)(C)[C@H](Oc7ccc(C#N)c(Cl)c7)C6(C)C)cn5)CC4)C3)cc1)=N[C@@H](C)c1nnc(C)n1-2` [Compound I-303] displayed a GI50 of 1500 to 3000 nM.
